# Test results from US20120100184A1, “SYNTHESIS OF 1-AMINO-1,3,3,5,5,-CYCLOHEXANE MESYLATE” (MERZ PHARMA GmbH & CO.KGaA, priority 2009, published 2012).
# Experiments:
# [1] = Particle size distribution of neramexane mesylate crystals by laser diffraction; type: physicochemical; details: for d(10) / d(50) / d(90): Example 17, re-crystallized from anisole; for PSD d(10) / PSD d(50) / PSD d(90): re-crystallization step (iii) and seeding step (iv)
# Protocol: The particle size is determined according to the known methods employing laser diffraction as already mentioned above, and determining the distribution modal sizes.
# Particle size distribution ranges as determined by laser diffraction with mesylates obtained in anisole, cumene, methyl ethyl ketone, methyl isobutyl ketone and n-butyl acetate by performing at least re-crystallization step (iii) and seeding step (iv) are disclosed in the following table:
# The crystals obtained in the process of Example 1 are analysed regarding the crystal size and size distribution. A commercial Malvern Mastersizer 2000 is employed. The samples are dispersed in rapeseed oil.
# [2] = Amount of solvent necessary to dissolve 1 g neramexane mesylate (re-crystallization step (iii)); type: physicochemical
# Protocol: 20 ml cumene are necessary to dissolve 1 g neramexane mesylate at 104° C. The mixture is cooled down to ambient temperature. The re-crystallized product is isolated via centrifugation. The obtained crystals are columnar.
# 22 ml methyl ethyl ketone are necessary to dissolve 1 g neramexane mesylate at 80° C. The mixture is cooled down to ambient temperature. The re-crystallized product is isolated via centrifugation. The obtained crystals have the form of plates in admixture with columnar crystals.
# 20 ml methyl isobutyl ketone are necessary to dissolve 1 g neramexane mesylate at 100° C. The mixture is cooled down to ambient temperature. The re-crystallized product is isolated via centrifugation. The obtained crystals are columnar.
# 23 ml n-butyl acetate are necessary to dissolve 1 g neramexane mesylate at 100° C. The mixture is cooled down to ambient temperature. The re-crystallized product is isolated via centrifugation. The obtained crystals are columnar.
# 10 ml anisole are necessary to dissolve 1 g neramexane mesylate at 87° C. The mixture is cooled down to ambient temperature. The re-crystallized product is isolated via centrifugation. The obtained crystals are columnar.
# 20 ml tetrahydrofurane are necessary to dissolve 1 g neramexane mesylate at 60° C. The mixture is cooled down to 57° C., where 5% by weight neramexane mesylate is added. Subsequently, the mixture is cooled down to ambient temperature. The re-crystallized product is isolated via centrifugation in a yield of 89%. The obtained crystals have the form of plates.
# 20 ml toluene are necessary to dissolve 1 g neramexane mesylate at 80° C. The mixture is cooled down to ambient temperature. The re-crystallized product is isolated via centrifugation.
# 100 ml of the mixture of acetone and water are necessary to dissolve 1 g neramexane mesylate at 40° C. The mixture is cooled down to ambient temperature. The re-crystallized product is isolated via centrifugation in a yield of 66%.
# 55 ml of dichloromethane are necessary to dissolve 1 g neramexane mesylate at 40° C. The mixture is cooled down to ambient temperature. The re-crystallized product is isolated via centrifugation in a yield of 87%.
# [3] = mesylate of the prior art (Schweizer, Dissertation, page 200); cited from earlier work
# [4] = Example 3, anisole, 5% by weight seeds added
# [5] = crystals of Example 1 (anisole, no seeds), Malvern Mastersizer 2000, dispersed in rapeseed oil
# [6] = obtained in methyl ethyl ketone
# [7] = obtained in methyl isobutyl ketone
compound,measurement,setting,value
"CC1(C)CC(C)(C)CC(C)(N)C1.CS(=O)(=O)O [neramexane mesylate, 1-amino-1,3,3,5,5-pentamethylcyclohexane mesylate]",Particle size Distribution d(10),[1]; [4],15 μm
same,Particle size Distribution d(50),[1]; [4],74 μm
same,Particle size Distribution d(90),[1]; [4],184 μm
same,amount of particulate matter (particles having a diameter of 10 μm and less),"[1]; Example 17, anisole, 1%, 2.5%, 5% and 7.5% seeds, respectively",below 5 % by weight
same,d(10),[1]; 1% seeds,69 μm
same,d(50),[1]; 1% seeds,181 μm
same,d(90),[1]; 1% seeds,377 μm
same,d(10),[1]; 2.5% seeds,36 μm
same,d(50),[1]; 2.5% seeds,119 μm
same,d(90),[1]; 2.5% seeds,330 μm
same,d(10),[1]; 5% seeds,24 μm
same,d(50),[1]; 5% seeds,86 μm
same,d(90),[1]; 5% seeds,215 μm
same,d(10),[1]; 7.5% seeds,21 μm
same,d(50),[1]; 7.5% seeds,76 μm
same,d(90),[1]; 7.5% seeds,243 μm
same,total amount of particles having a particle size of 10 μm and less,"[1]; crystals of Example 1 (anisole, no seeds)",less than 1 % by weight
same,Particle size Distribution d(10),[1]; [5],52.3 μm
same,Particle size Distribution d(50),[1]; [5],129.4 μm
same,Particle size Distribution d(90),[1]; [5],264.5 μm
same,PSD d(10),[1]; obtained in anisole,15 μm
same,PSD d(50),[1]; obtained in anisole,74 μm
same,PSD d(90),[1]; obtained in anisole,184 μm
same,PSD d(10),[1]; obtained in cumene,12 μm
same,PSD d(50),[1]; obtained in cumene,62 μm
same,PSD d(90),[1]; obtained in cumene,152 μm
same,PSD d(10),[1]; [6],5 μm
same,PSD d(50),[1]; [6],79 μm
same,PSD d(90),[1]; [6],210 μm
same,PSD d(10),[1]; [7],11 μm
same,PSD d(50),[1]; [7],57 μm
same,PSD d(90),[1]; [7],137 μm
same,PSD d(10),[1]; obtained in n-butyl acetate,12 μm
same,PSD d(50),[1]; obtained in n-butyl acetate,58 μm
same,PSD d(90),[1]; obtained in n-butyl acetate,136 μm
same,solvent necessary to dissolve 1 g neramexane mesylate,"[2]; anisole, 87° C.",10 mL
same,solvent necessary to dissolve 1 g neramexane mesylate,"[2]; cumene, 104° C.",20 mL
same,solvent necessary to dissolve 1 g neramexane mesylate,"[2]; dichloromethane, 40° C. (comparison)",55 mL
same,solvent necessary to dissolve 1 g neramexane mesylate,"[2]; methyl ethyl ketone, 80° C.",22 mL
same,solvent necessary to dissolve 1 g neramexane mesylate,"[2]; methyl isobutyl ketone, 100° C.",20 mL
same,solvent necessary to dissolve 1 g neramexane mesylate,"[2]; mixture of acetone/water 99/1 (volume/volume), 40° C. (comparison)",100 mL
same,solvent necessary to dissolve 1 g neramexane mesylate,"[2]; n-butyl acetate, 100° C.",23 mL
same,solvent necessary to dissolve 1 g neramexane mesylate,"[2]; tetrahydrofurane, 60° C.",20 mL
same,solvent necessary to dissolve 1 g neramexane mesylate,"[2]; toluene, 80° C. (comparison)",20 mL
same,particle population having a diameter of less than 10 μm,[3],approximately 20 % by weight
